In patent US10155021B2, “Antimicrobial 4-oxoquinolizines” (Emergent Product Development Gaithersburg Inc., priority 2011, dated 2018):
In brackets after ≈: the same amount, converted by molar mass. Read-outs that look alike come from different tables or passages of the source.

How the values were obtained:
S. aureus 101 = test: MIC, standard panel of Gram-positive and Gram-negative bacteria (CLSI); format: cell-based, Staphylococcus aureus; details: Staphylococcus aureus, 101; CAMHB; read-out: MIC S. aureus 101
E. coli 25922 = test: as above; format: cell-based, Escherichia coli; details: Escherichia coli, 25922; CAMHB; read-out: MIC E. coli 25922
A. Baumanii OXA-51 = test: MIC, panel of quinolone-resistant strains (CLSI); format: cell-based; details: Acinetobacter baumannii; CIP R, ESBL
S. pneumoniae 1027 = test: MIC, panel of quinolone-resistant strains (CLSI); format: cell-based; details: Streptococcus pneumoniae, LEV R
[1] = system: Acinetobacter spp. H064200250; test: MIC determination for Acinetobacter strains (Example 3); format: cell-based, Acinetobacter sp.; details: LEV R, CIP R, MRP R, IMP I
[2] = system: 11 strains of A. baumannii and one strain of Acinetobacter sp.; test: Preliminary MBC without and with sub-inhibitory polymyxin B, whole panel (Example 4; also strains not listed separately); format: cell-based; details: Acinetobacter baumannii, read-out: MBC without PB
A. baumannii A472 = test: Preliminary MBC without and with sub-inhibitory polymyxin B (Example 4); format: cell-based, Acinetobacter baumannii; details: Acinetobacter baumannii, A472, A. baumannii A472, without polymyxin B, read-out: MBC without PB
A. baumannii A473 [3] = test: as above; format: cell-based, Acinetobacter baumannii; details: Acinetobacter baumannii, A473, A. baumannii A473, without polymyxin B, read-out: MBC without PB
B. thailandensis E264 = test: microbe, parasite or virus in culture; format: cell-based, Burkholderia thailandensis; details: Burkholderia thailandensis, E264, read-out: MIC B. thailandensis E264
E. coli IMP = test: microbe, parasite or virus in culture; details: Escherichia coli, read-out: MIC E. coli IMP
B. thailandensis = test: microbe, parasite or virus in culture; format: cell-based, Burkholderia thailandensis; details: for MIC90: Burkholderia thailandensis, read-out: MIC90 B. thailandensis
A. baumannii ATCC 19606 [4] = test: MIC determination for Acinetobacter strains (Example 3); format: cell-based; details: ATCC19606, reference strain
A. baumannii J2 = test: as above; format: cell-based; details: LEV R, CIP R
A. baumannii A489 = test: as above; format: cell-based; details: LEV R, CIP R, MRP R, IMP R, AMK R, TET R
A. baumannii A390 [5] = test: as above; format: cell-based; details: LEV R, CIP R, MRP R, IPM I, AMK R, TET I
A. baumannii A473 [6] = test: as above; format: cell-based; details: LEV R, CIP R, MRP R, IMP R, AMK R, TET R
A. baumannii A387 [7] = test: MIC without and with sub-inhibitory polymyxin B (Example 4); format: cell-based, Acinetobacter baumannii; details: Acinetobacter baumannii, A387, A. baumannii A387, without polymyxin B, read-out: MIC without PB
A. baumannii A390 [8] = test: as above; format: cell-based, Acinetobacter baumannii; details: Acinetobacter baumannii, A390, A. baumannii A390, without polymyxin B, read-out: MIC without PB
A. baumannii ATCC 19606 [9] = test: Preliminary MBC without and with sub-inhibitory polymyxin B (Example 4); format: cell-based, Acinetobacter baumannii; details: Acinetobacter baumannii, ATCC19606, A. baumannii ATCC 19606, without polymyxin B, preliminary MBC, read-out: MBC without PB
A. baumannii A387 [10] = test: as above; format: cell-based, Acinetobacter baumannii; details: Acinetobacter baumannii, A387, A. baumannii A387, without polymyxin B, read-out: MBC without PB
S. aureus 25923 = test: MIC, standard panel of Gram-positive and Gram-negative bacteria (CLSI); format: cell-based, Staphylococcus aureus; details: Staphylococcus aureus, 25923; CAMHB; read-out: MIC S. aureus 25923
S. aureus 25923 HS = test: as above; format: cell-based; details: Staphylococcus aureus, CAMHB, HS, read-out: MIC S. aureus 25923 HS
P. aeruginosa 27853 = test: as above; format: cell-based, Pseudomonas aeruginosa; details: Pseudomonas aeruginosa, 27853; CAMHB; read-out: MIC P. aeruginosa 27853
A. baumannii A387 [11] = test: MIC determination for Acinetobacter strains (Example 3); format: cell-based; details: LEV I, CIP R, IPM R, AMK R, TET R

Structure (SMILES)	MIC (E. coli 25922) [µg/mL]	MIC (A. Baumanii OXA-51) [µg/mL]	MIC (S. pneumoniae 1027) [µg/mL]	MIC [1] [µg/mL]	MBC (A. baumannii A473 [3]; 1st experiment) [µg/mL]	MIC90 (B. thailandensis) [µg/mL]	MIC (A. baumannii J2) [µg/mL]	MIC (A. baumannii A489) [µg/mL]	MIC (A. baumannii A473 [6]) [µg/mL]	MIC (A. baumannii A387 [7]; 2nd experiment, visual reading) [µg/mL]	MBC (A. baumannii A387 [10]; 2nd experiment) [µg/mL]	MBC (A. baumannii A473 [3]; 2nd experiment) [µg/mL]	further results
Cc1c(-c2ccc(CN)c(F)c2)ccn2c(=O)c(C(=O)O)cc(C3CC3)c12 [Compound 4, 8-(3-fluoro-4-aminomethyl-phenyl)-1-cyclopropyl-9-methyl-4-oxo-quinolizine-3-carboxylic acid]	< 0.03	16 (≈ 43.7 µM)	1 (≈ 2.73 µM)	16 (≈ 43.7 µM)	4 (≈ 10.9 µM)								MIC (S. aureus 101): 4 µg/mL (≈ 10.9 µM); MBC ([2]; A. baumannii A14, without polymyxin B, 1st experiment): 16 µg/mL (≈ 43.7 µM); MBC ([2]; A. baumannii A14, without polymyxin B, 2nd experiment): > 32 µg/mL; MBC ([2]; NCTC13301, A. baumannii NCTC 13301, without polymyxin B, 2nd experiment): 32 µg/mL (≈ 87.3 µM); MBC (A. baumannii A472; 2nd experiment): 16 µg/mL (≈ 43.7 µM); MIC (B. thailandensis E264): 1 µg/mL (≈ 2.73 µM); MIC (E. coli IMP): < 0.008 µg/mL
Cc1c(-c2ccc(N)c(F)c2)ccn2c(=O)c(C(=O)O)cc(C3CC3)c12 [Compound 1, 8-(3-fluoro-4-amino-phenyl)-1-cyclopropyl-9-methyl-4-oxo-quinolizine-3-carboxylic acid]				8 (≈ 22.7 µM)	4 (≈ 11.4 µM)	< 0.048	8 (≈ 22.7 µM)	4 (≈ 11.4 µM)	4 (≈ 11.4 µM)	4 (≈ 11.4 µM)	4 (≈ 11.4 µM)	8 (≈ 22.7 µM)	Dilutions improvement shift on B. thailandensis MIC90 (between pH 7 and pH 5) (B. thailandensis; pH 7 versus pH 5): Yes, 4×; MIC (A. baumannii ATCC 19606 [4]): 0.25 µg/mL (≈ 0.709 µM); MIC (A. baumannii A390 [5]): 16 µg/mL (≈ 45.4 µM); MIC (A. baumannii A390 [8]; 1st experiment): 16 µg/mL (≈ 45.4 µM); MIC (A. baumannii A390 [8]; 2nd experiment, visual reading): 16 µg/mL (≈ 45.4 µM); MBC (A. baumannii ATCC 19606 [9]; 2nd experiment): 0.25 µg/mL (≈ 0.709 µM); MBC (A. baumannii ATCC 19606 [9]; 1st experiment): 0.25 µg/mL (≈ 0.709 µM); MBC (A. baumannii A472; 1st experiment): 8 µg/mL (≈ 22.7 µM)
Cc1c(-c2cc(Cl)c(N)c(Cl)c2)ccn2c(=O)c(C(=O)O)cc(C3CC3)c12 [Compound 3, 8-(3,5-dichloro-4-amino-phenyl)-1-cyclopropyl-9-methyl-4-oxo-quinolizine-3-carboxylic acid]	< 0.03	8 (≈ 19.8 µM)	2 (≈ 4.96 µM)	8 (≈ 19.8 µM)	4 (≈ 9.92 µM)	< 0.048	8 (≈ 19.8 µM)	4 (≈ 9.92 µM)	4 (≈ 9.92 µM)	1 (≈ 2.48 µM)	4 (≈ 9.92 µM)	8 (≈ 19.8 µM)	MIC (S. aureus 25923): < 0.008 µg/mL; MIC (S. aureus 25923 HS): 1 µg/mL (≈ 2.48 µM); MIC (P. aeruginosa 27853): 2 µg/mL (≈ 4.96 µM); MIC (A. baumannii A387 [11]): 1 µg/mL (≈ 2.48 µM); MIC (A. baumannii A387 [7]; 1st experiment): 1 µg/mL (≈ 2.48 µM); MBC (A. baumannii A387 [10]; 1st experiment): 1 µg/mL (≈ 2.48 µM)
